Target: T1, Mdm4 (Homo sapiens, UniProt O15151)
T1 sequence (O15151 1-490): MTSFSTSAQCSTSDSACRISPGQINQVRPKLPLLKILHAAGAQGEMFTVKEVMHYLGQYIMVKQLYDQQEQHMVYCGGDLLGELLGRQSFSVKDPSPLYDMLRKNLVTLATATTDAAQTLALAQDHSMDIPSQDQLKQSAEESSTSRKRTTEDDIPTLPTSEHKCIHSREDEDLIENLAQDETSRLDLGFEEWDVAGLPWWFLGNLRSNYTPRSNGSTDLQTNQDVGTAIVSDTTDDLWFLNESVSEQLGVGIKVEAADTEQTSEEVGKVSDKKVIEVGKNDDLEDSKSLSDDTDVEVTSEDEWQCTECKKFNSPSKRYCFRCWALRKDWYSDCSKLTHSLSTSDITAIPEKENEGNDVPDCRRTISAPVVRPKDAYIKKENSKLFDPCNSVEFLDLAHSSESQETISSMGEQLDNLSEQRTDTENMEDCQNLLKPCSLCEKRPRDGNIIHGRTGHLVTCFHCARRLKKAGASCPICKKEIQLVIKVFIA
Experiment: fluorescence polarization assay, p53-Mdm4
Type: binding
Settings: FP, resynthesized and purified by flash chromatography

Q: Which Ki does the source give for `O=C(CN(Cc1ccc(Cl)cc1)C(=O)c1cc2ccccc2[nH]1)NC1CCCCC1` [Compound B1, N-(4-Chlorobenzyl)-N-(2-(cyclohexylamino)-2-oxoethyl)-1H-indole-2-carboxamide] here?
A: 5.5 µM

Reference: publication PMC4130243 (ACS Combinatorial Science, 2014)
